Reference: patent US20110104055A1, “SUBSTITUTED N-ARYL BENZAMIDES AND RELATED COMPOUNDS FOR TREATMENT OF AMYLOID DISEASES AND SYNUCLEINOPATHIES” (priority 2002, published 2011)

Experiments:
Format in all cases: biochemical
Aβ 1-42 fibrils [1] = molecular target: T1, Aβ 1-42 fibrils (Homo sapiens, UniProt P05067); experiment: Thioflavin T fluorometry, disruption of pre-formed Aβ 1-42 fibrils (Example 6); details: 3 days; for % inhibition of Aβ (Thioflavin T fluorometry): 25 μM pre-fibrillized Aβ 1-42, 37° C.
T1 construct: purchased Bachem Inc
Protocol: (§1) The biological activity of the compounds provided herein as disruptors/inhibitors of Alzheimer's disease β-amyloid protein (Aβ) fibrils, type 2 diabetes IAPP fibrils and Parkinson's disease NAC fibrils was assessed by determining the efficacy of the compounds to cause a disassembly/disruption of pre-formed amyloid fibrils of Alzheimer's disease (i.e. consisting of Aβ 1-42 fibrils), IAPP fibrils and Parkinson's disease NAC fibrils. In one study, Thioflavin T fluorometry was used to determine the effects of the compounds, and of EDTA (as a negative control). In this assay Thioflavin T binds specifically to fibrillar amyloid, and this binding produces a fluorescence enhancement at 485 nm that is directly proportional to the amount of fibrils present. The higher the fluorescence, the greater the amount of fibrils present (Naki et al, Lab. Invest. 65:104-110, 1991; Levine III, Protein Sci. 2:404-410, 1993; Amyloid: Int. J. Exp. Clin. Invest. 2:1-6, 1995). The disruption of Aβ 1-42, even in its monomeric form, was confirmed by a study involving the use of SDS-PAGE and Western blotting methods.
(§2) In one study, Thioflavin T fluorometry was used to determine the effects of the compounds, and of EDTA (as a negative control). In this assay Thioflavin T binds specifically to fibrillar amyloid, and this binding produces a fluorescence enhancement at 485 nm that is directly proportional to the amount of amyloid fibrils formed. The higher the fluorescence, the greater the amount of amyloid fibrils formed (Naki et al., Lab. Invest. 65:104-110, 1991; Levine III, Protein Sci. 2:404-410, 1993; Amyloid: Int. J. Exp. Clin. Invest. 2:1-6, 1995).
(§3) Following 3 days of co-incubation, 50 μl of each incubation mixture was transferred into a 96-well microtiter plate containing 150 μl of distilled water and 50 μl of a Thioflavin T solution (i.e. 500 mM Thioflavin T in 250 mM phosphate buffer, pH 6.8). The fluorescence was read at 485 nm (444 nm excitation wavelength) using an ELISA plate fluorometer after subtraction with buffer alone or compound alone, as blank).

IAPP fibrils = molecular target: T2, IAPP fibrils (Homo sapiens, UniProt P10997); experiment: Thioflavin T fluorometry, disruption of IAPP fibrils; details: 3 days; for % inhibition of IAPP (Thioflavin T fluorometry): 25 μM IAPP, 37° C.
T2 construct: purchased Bachem Inc
T2 sequence (P10997 34-70 limits assumed): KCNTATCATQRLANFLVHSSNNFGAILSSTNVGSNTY
Protocol: as §1, with “In one study, Thioflavin T fluorometry was used to determine the effects of the compounds, and of EDTA (as a negative control).” left out
as §2, with “In” for “In one study, Thioflavin T fluorometry was used to determine the effects of the compounds, and of EDTA (as a negative control). In”
as §3, with “In this study, 25 μM of IAPP (Bachem Inc) was incubated at 37° C. for 3 days, either alone, or in the presence of one of the compounds or EDTA (at IAPP:test compound weight ratios of 1:1, 1:0.1, 1:0.01 or 1:0.001). Following” for “Following”

Aβ 1-42 fibrils [2] = molecular target: T1, Aβ 1-42 fibrils; experiment: Thioflavin T fluorometry, disruption of pre-formed Aβ 1-42 fibrils (Example 11); details: 3 days; for % Inhibition Aβ (result ± S.D.), Thioflavin T fluorometry: 30 μg pre-fibrillized Aβ 1-42, 37° C.
Text: as §2
as §3, with “3-days” for “3 days”, “blank.” for “blank).”

α-synuclein fibrils = molecular target: T3, α-synuclein fibrils (Homo sapiens, UniProt P37840); experiment: Congo red binding assay, α-synuclein fibrils (Example 12); details: 3-day incubation
T3 construct: purchased rPeptide
Protocol: In the Congo red binding assay, the ability of a given test compound to alter amyloid (in this case, α-synuclein) binding to Congo red is quantified. In this assay, α-synuclein and test compounds were incubated for 3 days and then vacuum filtered through a 0.2 μm filter. The amount of α-synuclein retained in the filter was then quantitated following staining of the filter with Congo red. After appropriate washing of the filter, any lowering of the Congo red color on the filter in the presence of the test compound (compared to the Congo red staining of the amyloid protein in the absence of the test compound) was indicative of the test compound's ability to diminish/alter the amount of aggregated and congophilic α-synuclein.
In one study, the ability of α-synuclein fibrils to bind Congo red in the absence or presence of increasing amounts of compounds DC-0051-F1, F2, F3, F4, F5, F6 and EDTA (at α-synuclein:test compound weight ratios of 1:1, 1:0.1, 1:0.01 or 1:0.001) was determined.

[3] = Aβ:test compound wt/wt ratio 1:0.01
[4] = Aβ:test compound wt/wt ratio 1:1
[5] = Thioflavin T fluorometry, all concentrations tested

T1 sequence (P05067 672-713): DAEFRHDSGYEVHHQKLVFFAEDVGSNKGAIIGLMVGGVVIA

O=C(O)CN(CCN(CC(=O)O)CC(=O)O)CC(=O)O [EDTA]
% inhibition of Aβ (Thioflavin T fluorometry) (Aβ 1-42 fibrils [1]; [3]): 0.2 ± 3.03% | % inhibition of Aβ (Thioflavin T fluorometry) (Aβ 1-42 fibrils [1]; [4]): 0.0 ± 3.59% | disruption/disassembly of preformed Aβ 1-42 fibrils, in words (Aβ 1-42 fibrils [1]; [5]): no significant inhibition/disruption | % inhibition of IAPP (Thioflavin T fluorometry) (IAPP fibrils; IAPP:test compound wt/wt ratio 1:0.001): 0.0 +/− 0.56% | % inhibition of IAPP (Thioflavin T fluorometry) (IAPP fibrils; IAPP:test compound wt/wt ratio 1:0.01): 4. +/− 3.152% | % inhibition of IAPP (Thioflavin T fluorometry) (IAPP fibrils; IAPP:test compound wt/wt ratio 1:0.1): 1.6 +/− 5.86% | % inhibition of IAPP (Thioflavin T fluorometry) (IAPP fibrils; IAPP:test compound wt/wt ratio 1:1): 0.0 ± 1.31% | disruption/disassembly of preformed IAPP fibrils, in words (IAPP fibrils; [5]): no significant inhibition/disruption | % Inhibition Aβ (result ± S.D.), Thioflavin T fluorometry (Aβ 1-42 fibrils [2]; Aβ:test compound wt/wt ratio 1:0.001): 0.0 ± 1.70% | % Inhibition Aβ (result ± S.D.), Thioflavin T fluorometry (Aβ 1-42 fibrils [2]; [3]): 2.4 ± 2.86% | % Inhibition Aβ (result ± S.D.), Thioflavin T fluorometry (Aβ 1-42 fibrils [2]; Aβ:test compound wt/wt ratio 1:0.1): 0.0 ± 6.02% | % Inhibition Aβ (result ± S.D.), Thioflavin T fluorometry (Aβ 1-42 fibrils [2]; [4]): 0.0 ± 3.46% | disruption/disassembly of preformed Aβ 1-42 fibrils, in words (Aβ 1-42 fibrils [2]; [5]): no significant inhibition | inhibition of α-synuclein fibril binding to Congo red, in words (α-synuclein fibrils; all concentrations tested): no significant inhibition | % Inhibition α-synuclein (result ± S.D.), Congo red binding (α-synuclein fibrils; α-synuclein:test compound wt/wt ratio 1:0.001): 3.3 ± 1.85% | % Inhibition α-synuclein (result ± S.D.), Congo red binding (α-synuclein fibrils; α-synuclein:test compound wt/wt ratio 1:0.01): 2.9 ± 5.0% | % Inhibition α-synuclein (result ± S.D.), Congo red binding (α-synuclein fibrils; α-synuclein:test compound wt/wt ratio 1:0.1): 2.2 ± 5.16% | % Inhibition α-synuclein (result ± S.D.), Congo red binding (α-synuclein fibrils; α-synuclein:test compound wt/wt ratio 1:1): 0.0 ± 5.50%
